In data set [1] the test system is human colon adenocarcinoma (Caco-2). Nature of the data set: MTT viability test, (S)-NAP 24 h. The format is cell-based. Conditions: Caco-2, NAP dosage 1.5-5.0 mM. Here is the method:
(§1) The effect of (S)-NAP on the viability of human colon adenocarcinoma cells with increasing degrees of malignancy was first evaluated. Caco2, HT-29, HCT-116 and a normal control cell MDCK, a […] kidney cell. Proliferation assays
(§2) (i) Cell cultures: Lineages of human colon adenocarcinoma cells with decreasing malignancy levels, HCT 116, HT-29 and Caco-2, were used. As a control of the epithelial cell model, a normal cell line of drainage epithelium (IEC-6) was used. These cells were cultured according to the ATCC specifications and maintained in a DMEM medium in an oven, with 5% CO2, at 37° C. until reaching semiconfluence.
(§3) (ii) Treatments: Initially, concentrations of sodium perylate (1.0, 1.8, 2.6, 3.4, 4.2 and 5.0 mM) were tested to determine the IC50 of the drug. Monolayers of semiconfluent cells were serum-depleted for 24 hours before treatment with (S)-NAP and during the treatment for 24 h.
(§4) (iii) Viability test: The lineages were plated in 96-well flat-bottom plates with DMEM culture medium containing the different (S)-NAP concentrations described above. Cell incubation with (S)-NAP was conducted for 24 h, at 37° C., upon which, the plates were incubated for 2 h with MTT [3-(4,5-dimethylthiazol-2-yl)-2,5diphenyltetrazolium bromide] 2.5 mg/ml, at a final concentration of 250 μg/ml. The plates were centrifuged at 1200 RPM, at 4° C., for 5 minutes, poured to remove the supernatant, since the crystals had deposited inside the cells. Formazan crystals were dissolved into […] of DMSO and homogenized manually and through the device. Absorbances were determined at 538 nm in a plate reader (Spectra Max 190). Controls of 100% viability, with no drug addition, and of 0% viability using formaldehyde were carried out simultaneously with the experiment.
For orientation: Formazan colour is commonly taken as a measure of viable cells.

Data set [2] has as its system human colon adenocarcinoma (HCT-116). Nature of the data set: MTT viability test, (S)-NAP 24 h. The format is cell-based. Conditions: HCT-116, NAP dosage 1.0-5.0 mM. The procedure: as §1, §2, §3, §4
Data set [3] concerns human colon adenocarcinoma (HT-29). Nature of the data set: MTT viability test, (S)-NAP 24 h. The format is cell-based. The settings on record: HT-29, NAP dosage 1.5-5.0 mM, concentration limited by NAP solubility. Here is the method:
as §1, §2, §3, §4

Data set [4] deals with MCF7 (breast tumor) cells. Put plainly: anti-proliferative assay (MTT, 48 h). The format is cell-based, human. Conditions: MCF7, 0.01 to 100 μM. The procedure: (§5) Example 6 was carried out to determine the biological activity of the following samples: (S)-perillyl alcohol, (S)-AP, (R)-AP, (S)-NAP, and (R)-NAP on human tumor lineages. (S)-perillyl alcohol was tested in combination with the samples of sodium acids and salts, because it is a substance which is considered to have some established clinical efficacy.
(§6) Samples (R)-AP, (S)-AP, (R)-NAP, (S)-NAP and perillyl alcohol (POH) were received and solubilized in DMSO or saline solution (NaCl 0.9%) and conserved at −20° C. until the day of the experiment, when they were immediately diluted before use, in a cell culture medium, DMEM, enriched with 10% fetal bovine serum, […] penicillin, and 0.1 mg/ml streptomycin, and 0.05 mg/ml gentamicin (DMEM complete medium). The experiments were carried out according to the Standard Operational Procedure of the Laboratory of Molecular Pharmacology FARMO1003 version 00, which are summarized below.
(§7) K562 (leukemia), LUCENA (multi-drug resistant leukemia), SKMEL28 (melanoma) and MCF7 (breast tumor) cells were cultivated on a DEM complete culture medium, and kept in log growth phase. Twenty-four hours before the treatment with the samples, 100 μl of the cell suspension (5×10^4 cells/ml) were added to wells of 96-well plates and kept in the oven at 5% CO2 atmosphere, at 37° C.
(§8) The treatment for each of the five samples was carried out in response dosage (0.01 to 100 μM; 5 spots), each concentration in triplicate.
(§9) After 48 hours, thiazolyl blue was added (MTT; SIGMA code M5655) and the plate was kept in the oven with CO2 for 4 hours. After the incubation time, the supernatant was aspirated and formazan crystals, formed by the cellular activity, were solubilized with isopropyl alcohol and, after full solubilization, the optical density determination was carried out in a microplate reader at 570 nm (VictorX5; Perkin Elmer USA).

The nature of data set [5]: solubility in an aqueous medium. The format is physicochemical. The settings on record: relative to POH and PA.
Data set [6] has as its system SKMEL28 (melanoma) cells. Nature of the data set: anti-proliferative assay (MTT, 48 h). The format is cell-based, human. Conditions: SKMEL, 0.01 to 100 μM. The procedure:
as §5, §6, §7, §8, §9

In data set [7] the test system is K562 (leukemia) cells. Nature of the data set: anti-proliferative assay (MTT, 48 h). The format is cell-based, human. The settings on record: K562, 0.01 to 100 μM. Here is the method: as §5, §6, §7, §8, §9
Data set [8] deals with Lucena (multi-drug resistant leukemia) cells. Nature of the data set: anti-proliferative assay (MTT, 48 h). The format is cell-based, human. Conditions: 0.01 to 100 μM. The procedure:
as §5, §6, §7, §8, §9

Bounds are passed on as bounds.

For orientation: IC50 means the concentration at which inhibition is half-maximal. As for `C=C(C)[C@@H]1CC=C(C(=O)[O-])CC1.[Na+]` [(S)-NAP, sodium perylate], in data set [1], the “Result (viability)” value is listed as “Refractory”. The IC50 in data set [2] is greater than 3.4 mM; in data set [3], greater than 5 mM. Further, the “inhibition (in words)” value in data set [4] was “no inhibition making IC50 calculation necessary”.

Take `C=C(C)C1CC=C(C(=O)[O-])CC1.[Na+]` (stereo not drawn) [NAP, sodium perylate]: the “solubility in an aqueous medium compared with POH and PA” value in data set [5] is listed as “higher”.

In the case of `C=C(C)[C@@H]1CC=C(C(=O)O)CC1` [(S)-PA, perillic acid, reference compound], the “inhibition (in words)” value in data set [4] and in data set [6] was “no inhibition making IC50 calculation necessary” throughout.

Take `C=C(C)C1CC=C(C(=O)[O-])CC1.[Na+]` (stereo in doubt) [(R)-NAP, sodium perylate]: the half-inhibitory concentration (IC50) in data set [7] turned out to be 1240 nM; in data set [8], 13 nM. The “inhibition (in words)” value in data set [6] is “no inhibition making IC50 calculation necessary”.

In the case of `C=C(C)[C@@H]1CC=C(CO)CC1` [POH, perillyl alcohol], the “inhibition (in words)” value in data set [4] is given as “no inhibition making IC50 calculation necessary”.

As to `C=C(C)[C@H]1CC=C(C(=O)O)CC1` [(R)-PA, perillic acid], the “inhibition (in words)” value in data set [4] is listed as “no inhibition making IC50 calculation necessary”.

The values above are taken from patent US20170260121A1, “COMPOUND, PROCESS FOR PREPARING A COMPOUND, PHARMACEUTICAL COMPOSITION, USE OF A COMPOUND AND METHOD FOR TREATING CANCER” (FUNDAÇÃO OSWALDO CRUZ, priority 2014, published 2017).
